How the values were obtained:
Glutamate receptor 2 [1] = target: T1, Glutamate receptor 2 (Homo sapiens, UniProt P42262); assay: Positive modulation of human GluA2 flip receptor by FLIPR assay
[2] = target: Voltage-gated inwardly rectifying potassium channel KCNH2 (Homo sapiens, UniProt Q12809); assay: Displacement of [3H]-dofetilide from human hERG
Liver microsomes = assay: Intrinsic clearance in human liver microsomes; format: ADME, Microsome
Glutamate receptor 2 [3] = target: T1, Glutamate receptor 2; assay: Positive modulation of human GluA2 flip receptor by FLIPR assay relative to cyclothiazide; parameters: concentration or dose not given beside the values
[4] = Aqueous solubility of the compound; format: physicochemical; details: aqueous medium
[5] = Ratio of drug level in brain to blood in rat
[6] = Half life in rat; format: ADME, organism-based; details: in vivo

Sequence of Voltage-gated inwardly rectifying potassium channel KCNH2 (Q12809 whole entry): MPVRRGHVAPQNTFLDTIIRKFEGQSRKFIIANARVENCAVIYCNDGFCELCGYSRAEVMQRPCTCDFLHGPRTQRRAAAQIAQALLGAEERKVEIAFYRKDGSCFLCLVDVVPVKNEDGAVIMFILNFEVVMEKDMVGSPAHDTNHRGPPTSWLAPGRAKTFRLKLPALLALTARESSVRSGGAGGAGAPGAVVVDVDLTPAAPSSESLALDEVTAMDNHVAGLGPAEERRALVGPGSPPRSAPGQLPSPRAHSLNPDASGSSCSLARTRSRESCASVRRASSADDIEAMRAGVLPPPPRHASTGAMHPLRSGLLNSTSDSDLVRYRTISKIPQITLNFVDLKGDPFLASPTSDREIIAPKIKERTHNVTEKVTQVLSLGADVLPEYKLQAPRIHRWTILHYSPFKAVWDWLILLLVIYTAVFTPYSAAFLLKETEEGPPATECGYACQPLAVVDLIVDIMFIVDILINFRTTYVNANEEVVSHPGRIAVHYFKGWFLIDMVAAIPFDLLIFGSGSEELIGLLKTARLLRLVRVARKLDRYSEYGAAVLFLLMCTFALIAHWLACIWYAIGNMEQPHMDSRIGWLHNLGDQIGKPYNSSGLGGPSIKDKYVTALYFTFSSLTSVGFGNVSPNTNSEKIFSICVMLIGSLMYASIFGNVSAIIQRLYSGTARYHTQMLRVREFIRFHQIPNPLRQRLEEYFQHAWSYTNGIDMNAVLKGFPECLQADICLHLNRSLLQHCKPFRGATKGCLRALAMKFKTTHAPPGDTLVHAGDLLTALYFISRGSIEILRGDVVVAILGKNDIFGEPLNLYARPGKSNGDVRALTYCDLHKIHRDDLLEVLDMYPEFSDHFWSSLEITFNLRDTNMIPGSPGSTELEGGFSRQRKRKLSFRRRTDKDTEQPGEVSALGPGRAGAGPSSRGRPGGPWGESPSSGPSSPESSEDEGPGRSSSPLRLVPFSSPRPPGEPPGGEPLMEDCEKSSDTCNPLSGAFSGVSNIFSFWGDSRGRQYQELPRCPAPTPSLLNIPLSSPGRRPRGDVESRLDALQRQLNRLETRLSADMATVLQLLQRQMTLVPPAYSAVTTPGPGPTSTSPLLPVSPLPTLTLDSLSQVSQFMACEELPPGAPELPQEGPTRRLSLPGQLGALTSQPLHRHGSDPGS
T1 sequence (P42262 whole entry): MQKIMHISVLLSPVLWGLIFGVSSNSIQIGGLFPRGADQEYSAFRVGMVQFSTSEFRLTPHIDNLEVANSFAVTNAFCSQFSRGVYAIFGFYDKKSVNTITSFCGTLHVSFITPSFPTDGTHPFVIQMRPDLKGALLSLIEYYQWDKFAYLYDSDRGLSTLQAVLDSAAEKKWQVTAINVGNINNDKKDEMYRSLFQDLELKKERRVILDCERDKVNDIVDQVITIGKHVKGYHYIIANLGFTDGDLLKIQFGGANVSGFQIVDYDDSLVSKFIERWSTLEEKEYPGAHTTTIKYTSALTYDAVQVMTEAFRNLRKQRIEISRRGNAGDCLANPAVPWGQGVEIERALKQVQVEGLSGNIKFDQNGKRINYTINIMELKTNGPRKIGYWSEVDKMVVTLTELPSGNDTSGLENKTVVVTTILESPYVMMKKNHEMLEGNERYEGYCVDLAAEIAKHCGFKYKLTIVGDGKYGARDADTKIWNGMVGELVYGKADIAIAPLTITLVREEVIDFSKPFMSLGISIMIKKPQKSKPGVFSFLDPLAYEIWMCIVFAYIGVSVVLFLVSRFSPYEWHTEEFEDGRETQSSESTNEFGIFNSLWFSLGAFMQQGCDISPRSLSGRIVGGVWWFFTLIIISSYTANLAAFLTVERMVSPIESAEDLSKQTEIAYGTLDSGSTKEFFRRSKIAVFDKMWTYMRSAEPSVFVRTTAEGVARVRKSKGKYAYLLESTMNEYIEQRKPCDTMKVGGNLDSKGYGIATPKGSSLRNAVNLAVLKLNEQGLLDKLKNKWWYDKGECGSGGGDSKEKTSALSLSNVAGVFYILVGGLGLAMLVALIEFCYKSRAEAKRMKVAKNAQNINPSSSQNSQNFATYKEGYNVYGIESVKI

Structure (SMILES) | EC50 (Glutamate receptor 2 [1]) | CL (Liver microsomes) | Activity (Glutamate receptor 2 [3]) | solubility [4] | Kp [5] | half-life [6] | IC50 [2]
CC(C)S(=O)(=O)N[C@H]1CN(C)CC1c1ccc(-c2ccc(F)nc2)cc1 (single isomer, unassigned) | 5 µM | 0.8 mL/min/g | 117% | – | – | – | 1 µM
CC(C)S(=O)(=O)N[C@H]1CN(C)CC1c1ccc(-c2cccs2)cc1 (single isomer, unassigned) | 20 µM | – | 29% | – | – | – | > 63 µM
CC(C)S(=O)(=O)N[C@H]1CN(C)CC1c1ccc(-c2ccsc2)cc1 (single isomer, unassigned) | 3.2 µM | – | 106% | – | – | – | 4 µM
CC(C)S(=O)(=O)N[C@@H]1COCC1c1ccc(-c2ccc(C#N)cc2)cc1 (single isomer, unassigned) | 0.5 µM | – | 112% | – | – | – | 12.6 µM
CC(C)S(=O)(=O)N[C@@H]1COCC1c1ccc(-c2ccc(F)nc2)cc1 (single isomer, unassigned) | 0.3 µM | – | 125% | – | – | – | 12.6 µM
CC(C)S(=O)(=O)N[C@@H]1COCC1c1ccc(-c2cncc(F)c2)cc1 (single isomer, unassigned) | 0.3 µM | 0.6 mL/min/g | 131% | – | – | – | > 63 µM
CC(C)S(=O)(=O)N[C@@H]1COCC1c1ccc(-c2ccc(F)cn2)cc1 (single isomer, unassigned) | 0.3 µM | 0.8 mL/min/g | 117% | – | – | – | > 63 µM
CC(C)S(=O)(=O)N[C@@H]1COCC1c1ccc(-c2cccs2)cc1 (single isomer, unassigned) | 0.3 µM | – | 117% | – | – | – | > 63 µM
CC(C)S(=O)(=O)N[C@@H]1COCC1c1ccc(-c2ccsc2)cc1 (single isomer, unassigned) | 0.4 µM | – | 120% | – | – | – | –
CC(C)S(=O)(=O)N[C@H]1CN(C)CC1c1ccc(-c2cccc(NS(C)(=O)=O)c2)cc1 (single isomer, unassigned) | 0.3 µM | – | 124% | > 9000 µg/mL | – | – | 31.6 µM
CCN1CC(c2ccc(-c3cccc(NS(C)(=O)=O)c3)cc2)[C@@H](NS(=O)(=O)C(C)C)C1 (single isomer, unassigned) | 1.6 µM | 0.7 mL/min/g | 111% | – | – | – | 2.5 µM
CC(C)N1CC(c2ccc(-c3cccc(NS(C)(=O)=O)c3)cc2)[C@@H](NS(=O)(=O)C(C)C)C1 (single isomer, unassigned) | – | 0.7 mL/min/g | 89% | – | – | – | –
CCN1CC(c2ccc(-c3ccc(C#N)cc3)cc2)[C@@H](NS(=O)(=O)C(C)C)C1 (single isomer, unassigned) | 7.9 µM | 1.2 mL/min/g | 90% | – | – | – | –
CC(C)S(=O)(=O)N[C@H]1CN(c2ccccc2)CC1c1ccc(-c2ccc(C#N)cc2)cc1 (single isomer, unassigned) | 6.2 µM | – | 48% | – | – | – | 0.8 µM
CC(C)S(=O)(=O)N[C@H]1CN(C)CC1c1ccc(-c2cccc(S(C)(=O)=O)c2)cc1 (single isomer, unassigned) | 5 µM | – | 75% | – | – | – | –
CC(=O)Nc1cccc(-c2ccc(C3CN(C)C[C@@H]3NS(=O)(=O)C(C)C)cc2)c1 (single isomer, unassigned) | 4 µM | – | 79% | – | – | – | 12.6 µM
CC(C)S(=O)(=O)N[C@H]1CN(C)CC1c1ccc(-c2cccnc2)cc1 (single isomer, unassigned) | 4 µM | – | 100% | – | – | – | 31.6 µM
CC(C)S(=O)(=O)N[C@H]1CN(C)CC1c1ccc(-c2cccnc2F)cc1 (single isomer, unassigned) | 2.5 µM | – | 101% | – | – | – | 6.3 µM

The next lines start with results.

EC50 (Glutamate receptor 2 [1]) | CL (Liver microsomes) | Activity (Glutamate receptor 2 [3]) | solubility [4] | Kp [5] | half-life [6] | Structure (SMILES) | IC50 [2]
4 µM | – | 74% | – | – | – | CC(C)S(=O)(=O)N[C@H]1CN(c2ccccc2)CC1c1ccc(-c2ccc(F)nc2)cc1 (single isomer, unassigned) | 0.08 µM
0.1 µM | – | 124% | – | – | – | CC(=O)c1cccc(-c2ccc(C3COC[C@H]3NS(=O)(=O)C(C)C)cc2)c1 (single isomer, unassigned) | –
5 µM | – | 38% | – | – | – | CC(C)S(=O)(=O)N[C@H]1CN(c2ccccc2)CC1c1ccc(-c2cccc(NS(C)(=O)=O)c2)cc1 (single isomer, unassigned) | –
5 µM | 0.8 mL/min/g | 109% | > 2700 µg/mL | 1.8 | > 2 h | CC(C)S(=O)(=O)N[C@H]1CN(C)CC1c1ccc(-c2ccc(C#N)cc2)cc1 (single isomer, unassigned) | –
20 µM | – | 30% | – | – | – | CC(C)N1CC(c2ccc(-c3ccc(C#N)cc3)cc2)[C@@H](NS(=O)(=O)C(C)C)C1 (single isomer, unassigned) | –
6.3 µM | – | 73% | – | – | – | CC(=O)c1cccc(-c2ccc(C3CN(C)C[C@@H]3NS(=O)(=O)C(C)C)cc2)c1 (single isomer, unassigned) | 7.9 µM
79.4 µM | – | 26% | – | – | – | CC(C)S(=O)(=O)N[C@H]1CN(C)CC1c1ccc(-c2cccc(C(F)(F)F)c2)cc1 (single isomer, unassigned) | –
2.5 µM | – | 20% | – | – | – | CC(C)S(=O)(=O)N[C@H]1CN(C)CC1c1ccc(-c2ccccc2F)cc1 (single isomer, unassigned) | –
